{
  "source": "patent US8071654B2",
  "about": "“Inhibitors of thromboxane formation and action” (priority 2000, dated 2011)",
  "type_in_all_cases": "cell-based",
  "key": {"[1]": {"molecular_target": "T1, 12-LOX (Homo sapiens, UniProt P18054)", "T1 construct": "endogenous in cells; host or cells: washed human platelets", "T1 sequence (P18054 1-663)": "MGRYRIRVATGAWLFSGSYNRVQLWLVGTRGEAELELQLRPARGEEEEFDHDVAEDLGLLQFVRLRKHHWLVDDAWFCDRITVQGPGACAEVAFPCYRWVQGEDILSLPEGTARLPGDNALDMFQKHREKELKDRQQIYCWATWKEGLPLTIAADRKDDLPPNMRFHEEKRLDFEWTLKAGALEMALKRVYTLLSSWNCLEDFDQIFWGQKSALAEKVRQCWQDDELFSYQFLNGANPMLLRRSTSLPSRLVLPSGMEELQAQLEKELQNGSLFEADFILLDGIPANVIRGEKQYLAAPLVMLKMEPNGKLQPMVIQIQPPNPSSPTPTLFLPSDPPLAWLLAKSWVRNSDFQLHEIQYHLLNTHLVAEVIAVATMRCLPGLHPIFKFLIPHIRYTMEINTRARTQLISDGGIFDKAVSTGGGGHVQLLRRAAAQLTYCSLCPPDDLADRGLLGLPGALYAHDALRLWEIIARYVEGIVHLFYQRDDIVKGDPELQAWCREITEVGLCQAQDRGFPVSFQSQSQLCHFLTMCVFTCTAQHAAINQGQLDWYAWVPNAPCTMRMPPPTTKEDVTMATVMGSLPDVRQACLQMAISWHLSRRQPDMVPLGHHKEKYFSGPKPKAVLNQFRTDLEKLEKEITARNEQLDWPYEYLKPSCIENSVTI", "experiment": "12-HETE formed in collagen-treated washed human platelets (12-LOX), HPLC", "details": "for 12-LOX enzyme activity (% of control values, mean ± SD): n = 3", "experimental": "(§1) 0.5 ml of platelet suspension was added to siliconized glass tubes (four at a time) and heated with magnetic stirring to 37° for 1 min in a platelet aggregometer (PAP-4C). Either vehicle alone (ethanol, 1 μl) or hepoxilin analog was then added, followed two min later by agonist (collagen: 2 μg; PGH2: 100 ng/0.5 ml; U46619: 10 ng/0.5 ml or I-BOP: 2 ng/0.5 ml). The response was recorded for the next 5 min. In experiments where analysis of TxB2 and HHT were to be made by HPLC, the platelet suspension at the end of the experiment was diluted with ethyl acetate, 100 ng of prostaglandin B1 was added as internal standard, and the mixture was acidified to pH 3 with 0.1 N HCl. After centrifugation, the organic layer was separated, washed twice with water to neutrality, and evaporated to dryness. Half of the sample was taken and was resuspended in 1 ml ethyl acetate containing 20 μg ADAM reagent, and was left in the dark for 2 h (38). The solvent was then evaporated and the residue was acetylated with a solution of pyridine/acetic anhydride (3/1, v/v) during 16 h at 23°. The reagents were evaporated to dryness and the residue was resuspended in acetonitrile/water for HPLC analysis. In experiments where the conversion of tritiated PGH2 was to be monitored, the procedure described above was repeated with tritiated PGH2 instead of unlabeled PGH2. After extraction of the sample as described above, the radiolabeled compounds were analyzed by TLC. Dose response curves for varying amounts of test compounds were generated and the data expressed as % inhibition of collagen-induced platelet aggregation. Each point was investigated 5 times and statistical analysis of the data was carried out using Macintosh Statview statistical software.\n(§2) Measurement of eicosanoids formed by platelets during treatment with collagen or the TP receptor agonists in the presence or absence of PBT-3 was carried out by HPLC after appropriate derivatization with a fluorescent tag (anthracyl diazomethane—ADAM) which forms a fluorescent ester (44). The method was adapted to measure the following compounds: TxB2, HHT, 12-HETE and M. The platelet suspension at the end of the experiment was mixed with ethyl acetate, 100 ng of prostaglandin B1 was added as internal standard and the mixture was acidified to pH 3 with 0.1 N HCl. After centrifugation, the organic layer was separated, washed twice with water to neutrality, and evaporated to dryness. The residue was resuspended in ethyl acetate and half of the sample was taken. It was diluted to 0.2 ml with ethyl acetate containing 20 μg ADAM reagent, and was left in the dark for 2 h. The solvent was then evaporated and the residue was acetylated with a solution of pyridine/acetic anhydride (3/1, v/v) for 16 h at 23°. The reagents were evaporated to dryness and the residue was resuspended in acetonitrile/water for HPLC analysis. Dose response curves for varying amounts of test compounds were generated and the data were expressed as % inhibition of agonist-induced platelet aggregation. Each point was investigated 3 times and statistical analysis of the data was carried out using Macintosh Statview statistical software.\n(§3) Analysis of the anthryl (ADAM)-acetate derivative of TxB2, HHT and 12 HETE in the extracted platelet samples was carried out on a Hewlett Packard (1100 series) HPLC to which was attached a Shimadzu fluorescent detector (RF-10AXL). The detector was operated with excitation at 364 nm, emission at 411 nm. […]"}, "[2]": {"tested_on": "Plase A2", "experiment": "AA formed in collagen-treated washed human platelets (Plase A2), HPLC", "details": "for Plase A2 enzyme activity (% of control values, mean ± SD): n = 3", "experimental": "as §1, §2, §3"}, "[3]": {"tested_on": "human platelets", "experiment": "PGH2-evoked platelet aggregation", "details": "PGH2 100 ng; PBT-3 at various doses before PGH2", "experimental": "Venous blood was obtained from healthy human subjects who had not taken NSAID's for at least two weeks. Blood was drawn into plastic syringes containing ACD. It was immediately centrifuged at 23° at 200×g for 15 min. The platelet rich plasma was transferred into fresh plastic tubes and centrifuged at 400×g for 5 min. The supernatant was discarded and the platelet sediment was resuspended in fresh medium containing NaCl (137 mM), KCl (1 mM), NaH2PO4, glucose (5.5 mM), HEPES (20 mM) and CaCl2 (1 mM) and allowed to stand at room temperature for 30 min. A platelet count was made, which determined the volume of platelet suspension needed to make up 350×10^6 cells for each measurement. The aliquot was diluted with medium to make 0.5 ml/assay/cuvette. […]\n0.5 ml of platelet suspension was added to siliconized glass tubes (four at a time) and heated with magnetic stirring to 37° for 1 min in a platelet aggregometer (PAP-4C). […] The response was recorded for the next 5 min. […] In experiments where the conversion of tritiated PGH2 was to be monitored, the procedure described above was repeated with tritiated PGH2 instead of unlabeled PGH2. After extraction of the sample as described above, the radiolabeled compounds were analyzed by TLC. Dose response curves for varying amounts of test compounds were generated and the data expressed as % inhibition of collagen-induced platelet aggregation. […]"}, "[4]": {"details": "relatively large amounts of PBT-3, about 3-4 log doses greater than required to inhibit the TP receptor"}},
  "data": [
    {"smiles": "CCCCC/C=C\\CC1CC1[C@@H](O)/C=C\\C/C=C\\CCCC(=O)OC", "note": "(stereo partly drawn) [PBT-3, 10(S)-hydroxy-11,12-cyclopropyl-eicosa-5Z,8Z,14Z-trienoic acid methyl ester]", "values": [
      {"measurement": "12-LOX enzyme activity (% of control values, mean ± SD)", "setting": "[1]; PBT-3 0.05 μM", "result": "79.4 ± 7.6 % of control"},
      {"measurement": "12-LOX enzyme activity (% of control values, mean ± SD)", "setting": "[1]; PBT-3 0.30 μM", "result": "85.2 ± 7.4^NS % of control"},
      {"measurement": "12-LOX enzyme activity (% of control values, mean ± SD)", "setting": "[1]; PBT-3 0.60 μM", "result": "73.0 ± 4.9 % of control"},
      {"measurement": "12-LOX enzyme activity (% of control values, mean ± SD)", "setting": "[1]; PBT-3 3.00 μM", "result": "102.5 ± 5.7^NS % of control"},
      {"measurement": "inhibition of 12-LOX, in words", "setting": "[1]; [4]", "result": "Neither COX-1, COX-2,12-LOX nor Plase A2 was inhibited"},
      {"measurement": "Plase A2 enzyme activity (% of control values, mean ± SD)", "setting": "[2]; PBT-3 0.05 μM", "result": "100.0 ± 6.9^NS % of control"},
      {"measurement": "Plase A2 enzyme activity (% of control values, mean ± SD)", "setting": "[2]; PBT-3 0.30 μM", "result": "91.9 ± 5.6^NS % of control"},
      {"measurement": "Plase A2 enzyme activity (% of control values, mean ± SD)", "setting": "[2]; PBT-3 0.60 μM", "result": "89.5 ± 15.6^NS % of control"},
      {"measurement": "Plase A2 enzyme activity (% of control values, mean ± SD)", "setting": "[2]; PBT-3 3.00 μM", "result": "120.8 ± 18.3^NS % of control"},
      {"measurement": "inhibition of Plase A2, in words", "setting": "[2]; [4]", "result": "Neither COX-1, COX-2,12-LOX nor Plase A2 was inhibited"},
      {"measurement": "inhibition of PGH2-evoked aggregation", "setting": "[3]", "result": "inhibited the second wave of aggregation"}
    ]}
  ]
}
